Laboratory results as given in US11053204B2, “Pyrimidinyloxy benzene derivatives as herbicides” (FMC Corporation, priority 2015, dated 2021).

Columns and labels:
Type in all cases: in vivo
[1] = test system: Italian ryegrass (Lolium multiflorum); test: Test A preemergence, visual injury rating
Procedure, shortened: (§1)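 Compounds in non-phytotoxic solvent with surfactant applied as soil spray preemergence, or postemergence to plants 2-10 cm at one- to two-leaf stage, in loam/sand. After approximately 10 days in greenhouse, injury rated visually versus untreated controls, 0 (no effect) to 100 (complete control).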

[2] = test system: barnyardgrass (Echinochloa crus-galli); test: Test A preemergence, visual injury rating
Procedure, shortened: as §1

[3] = test system: giant foxtail (Setaria faberii); test: Test A preemergence, visual injury rating
Procedure, shortened: as §1

kochia (Kochia scoparia) [4] = test: Test A preemergence, visual injury rating
Procedure, shortened: as §1

[5] = test system: pigweed (Amaranthus retroflexus); test: Test A preemergence, visual injury rating
Procedure, shortened: as §1

[6] = test system: ragweed (common ragweed, Ambrosia elatior); test: Test A preemergence, visual injury rating
Procedure, shortened: as §1

[7] = test system: ducksalad (Heteranthera limosa); test: Test B flooded paddy test, plant response rating; conditions: 250 g ai/ha, Flood, scale of 0 to 100 where 0 is no effect and 100 is complete control, 13 to 15 days
Procedure, shortened: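 Compound was added to standing water 3 cm above soil, flood maintained, and plants held in a greenhouse before visual scoring against controls at 13 to 15 days.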

corn (Zea mays) = test: Test C postemergence, plant response rating
Procedure, shortened: (§2)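 Greenhouse plants rated visually against untreated controls 13–15 d after treatment, scale 0 = no effect to 100 = complete control. Postemergence sprays went onto potted plants 2–18 cm tall (1–4 leaves); preemergence sprays onto soil freshly sown in loam–sand or silt loam, chemicals formulated in non-phytotoxic solvent with surfactant.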

[8] = test system: crabgrass, large (large crabgrass, Digitaria sanguinalis); test: Test C postemergence, plant response rating
Procedure, shortened: as §2

kochia (Kochia scoparia) [9] = test: Test C postemergence, plant response rating
Procedure, shortened: as §2

[10] = test system: lambsquarters (Chenopodium album); test: Test C postemergence, plant response rating
Procedure, shortened: as §2

[11] = test system: morningglory (Ipomoea coccinea); test: Test C postemergence, plant response rating
Procedure, shortened: as §2

[12] = test system: nutsedge, yellow (yellow nutsedge, Cyperus esculentus); test: Test C postemergence, plant response rating
Procedure, shortened: as §2

[13] = test system: oat, wild (wild oat Avena fatua); test: Test C postemergence, plant response rating
Procedure, shortened: as §2

[14] = test system: ragweed (common ragweed, Ambrosia elatior); test: Test C postemergence, plant response rating
Procedure, shortened: as §2

[15] = test system: velvetleaf (Abutilon theophrasti); test: Test C postemergence, plant response rating
Procedure, shortened: as §2

[16] = 31 g ai/ha, 0 to 100 scale, 0 no effect, 100 complete control
[17] = 125 g ai/ha, 0 to 100 scale (0 no effect, 100 complete control)
[18] = 62 g ai/ha, scale 0 to 100 (0 no effect, 100 complete control)
[19] = 125 g ai/ha, scale 0 to 100 (0 no effect, 100 complete control)

O=C(CCC(F)(F)F)c1c(Cl)cccc1Oc1ncc(Cl)cn1 [Compound 107, 1-[2-chloro-6-[(5-chloro-2-pyrimidinyl)oxy]phenyl]-4,4,4-trifluoro-1-butanone] was tested, and the “Plant response rating, Ryegrass, Italian” value [1, 16] was 30, the “Plant response rating, Ryegrass, Italian” value [1, 17] was 80 and the “Plant response rating, Barnyardgrass” value [2, 16] was 90. The pest or weed control at 125 g/ha ([2]; Echinochloa crus-galli, pre-emergence, 240 h, 125 g ai/ha, 0 to 100 scale (0 no effect, 100 complete control), read-out: Barnyardgrass plant response rating) was 100%, the “Plant response rating, Foxtail, Giant” value [3, 16] was 100 and the “Plant response rating, Foxtail, Giant” value [3, 17] was 100. For the same compound, the “Plant response rating, Kochia” value (kochia (Kochia scoparia) [4]; [16]) was 90, the “Plant response rating, Kochia” value (kochia (Kochia scoparia) [4]; [17]) was 100 and the “Plant response rating, Pigweed” value [5, 16] was 100. The “Plant response rating, Pigweed” value [5, 17] was 100, the “Plant response rating, Ragweed” value [6, 16] was 0 and the “Plant response rating, Ragweed” value [6, 17] was 20. It also gave a pest or weed control at 250 g/ha ([7]; Heteranthera limosa, 312 h) of 95%, a Corn plant response rating (crop injury, 0 = no effect, 100 = complete kill) at 16 g/ha (corn (Zea mays); Zea mays, post-emergence, 16 g ai/ha, scale of 0 to 100) of 10% and a Corn plant response rating (crop injury, 0 = no effect, 100 = complete kill) at 31 g/ha (corn (Zea mays); Zea mays, post-emergence, 31 g ai/ha, scale 0 to 100) of 20%. For the same compound, the plant injury at 62 g/ha (corn (Zea mays); Zea mays, post-emergence, 62 g ai/ha, scale 0 to 100 (0 no effect, 100 complete control)) was 20%, the plant injury at 125 g/ha (corn (Zea mays); Zea mays, post-emergence, 125 g ai/ha, scale 0 to 100 (0 no effect, 100 complete control)) was 30% and the pest or weed control at 16 g/ha ([8]; Digitaria sanguinalis, post-emergence, 16 g ai/ha, scale of 0 to 100) was 10%. The pest or weed control at 31 g/ha ([8]; Digitaria sanguinalis, post-emergence, 31 g ai/ha, scale 0 to 100) was 10%, the pest or weed control at 62 g/ha ([8]; Digitaria sanguinalis, post-emergence, 62 g ai/ha, scale 0 to 100 (0 no effect, 100 complete control)) was 30% and the pest or weed control at 125 g/ha ([8]; Digitaria sanguinalis, post-emergence, 125 g ai/ha, scale 0 to 100 (0 no effect, 100 complete control)) was 60%. It also gave a pest or weed control at 16 g/ha (kochia (Kochia scoparia) [9]; Bassia scoparia, post-emergence, 16 g ai/ha, scale of 0 to 100) of 80%, a pest or weed control at 31 g/ha (kochia (Kochia scoparia) [9]; Bassia scoparia, post-emergence, 31 g ai/ha, scale 0 to 100) of 85% and a pest or weed control at 62 g/ha (kochia (Kochia scoparia) [9]; Bassia scoparia, post-emergence, 62 g ai/ha, scale 0 to 100 (0 no effect, 100 complete control)) of 95%. The pest or weed control at 125 g/ha (kochia (Kochia scoparia) [9]; Bassia scoparia, post-emergence, 125 g ai/ha, scale 0 to 100 (0 no effect, 100 complete control)) was 98%, the pest or weed control at 16 g/ha ([10]; Chenopodium album, post-emergence, 16 g ai/ha, scale of 0 to 100) was 80% and the pest or weed control at 31 g/ha ([10]; Chenopodium album, post-emergence, 31 g ai/ha, scale 0 to 100) was 85%. It also gave a pest or weed control at 62 g/ha ([10]; Chenopodium album, post-emergence, 62 g ai/ha, scale 0 to 100 (0 no effect, 100 complete control)) of 100%, a pest or weed control at 125 g/ha ([10]; Chenopodium album, post-emergence, 125 g ai/ha, scale 0 to 100 (0 no effect, 100 complete control)) of 100% and a pest or weed control at 16 g/ha ([11]; Ipomoea, post-emergence, 16 g ai/ha, scale of 0 to 100) of 20%. The pest or weed control at 31 g/ha ([11]; Ipomoea, post-emergence, 31 g ai/ha, scale 0 to 100) was 60%, the pest or weed control at 62 g/ha ([11]; Ipomoea, post-emergence, 62 g ai/ha, scale 0 to 100 (0 no effect, 100 complete control)) was 80% and the pest or weed control at 125 g/ha ([11]; Ipomoea, post-emergence, 125 g ai/ha, scale 0 to 100 (0 no effect, 100 complete control)) was 95%. For the same compound, the pest or weed control at 16 g/ha ([12]; Cyperus, post-emergence, 16 g ai/ha, scale of 0 to 100) was 5%, the pest or weed control at 31 g/ha ([12]; Cyperus, post-emergence, 31 g ai/ha, scale 0 to 100) was 5% and the pest or weed control at 62 g/ha ([12]; Cyperus, post-emergence, 62 g ai/ha, scale 0 to 100 (0 no effect, 100 complete control)) was 5%. It also gave a pest or weed control at 125 g/ha ([12]; Cyperus, post-emergence, 125 g ai/ha, scale 0 to 100 (0 no effect, 100 complete control)) of 5%, a pest or weed control at 16 g/ha ([13]; Avena fatua, post-emergence, 16 g ai/ha, scale of 0 to 100) of 5% and a pest or weed control at 31 g/ha ([13]; Avena fatua, post-emergence, 31 g ai/ha, scale 0 to 100) of 40%. For the same compound, the pest or weed control at 62 g/ha ([13]; Avena fatua, post-emergence, 62 g ai/ha, scale 0 to 100 (0 no effect, 100 complete control)) was 35%, the pest or weed control at 125 g/ha ([13]; Avena fatua, post-emergence, 125 g ai/ha, scale 0 to 100 (0 no effect, 100 complete control)) was 45% and the pest or weed control at 16 g/ha ([14]; Ambrosia artemisiifolia, post-emergence, 16 g ai/ha, scale of 0 to 100) was 25%. The pest or weed control at 31 g/ha ([14]; Ambrosia artemisiifolia, post-emergence, 31 g ai/ha, scale 0 to 100) was 35%, the pest or weed control at 62 g/ha ([14]; Ambrosia artemisiifolia, post-emergence, 62 g ai/ha, scale 0 to 100 (0 no effect, 100 complete control)) was 35% and the pest or weed control at 125 g/ha ([14]; Ambrosia artemisiifolia, post-emergence, 125 g ai/ha, scale 0 to 100 (0 no effect, 100 complete control)) was 45%. For the same compound, the pest or weed control at 16 g/ha ([15]; Abutilon theophrasti, post-emergence, 16 g ai/ha, scale of 0 to 100) was 60%, the pest or weed control at 31 g/ha ([15]; Abutilon theophrasti, post-emergence, 31 g ai/ha, scale 0 to 100) was 65% and the pest or weed control at 125 g/ha ([15]; Abutilon theophrasti, post-emergence, 125 g ai/ha, scale 0 to 100 (0 no effect, 100 complete control)) was 90%. The pest or weed control at 62 g/ha ([15]; Abutilon theophrasti, post-emergence, rate not given, scale 0 to 100, read-out: Plant response rating, Velvetleaf) was 75%.

FC(F)(F)CCCCc1c(Br)cccc1Oc1ncc(Cl)cn1 [Compound 138] was tested, and the “Plant response rating, Ryegrass, Italian” value [1, 16] was 10, the “Plant response rating, Ryegrass, Italian” value [1, 17] was 100 and the “Plant response rating, Barnyardgrass” value [2, 16] was 70. The “Plant response rating, Barnyardgrass” value [2, 17] was 100, the “Plant response rating, Foxtail, Giant” value [3, 16] was 90 and the “Plant response rating, Foxtail, Giant” value [3, 17] was 100. The “Plant response rating, Kochia” value (kochia (Kochia scoparia) [4]; [16]) was 50, the “Plant response rating, Kochia” value (kochia (Kochia scoparia) [4]; [17]) was 100 and the “Plant response rating, Pigweed” value [5, 16] was 80. The “Plant response rating, Pigweed” value [5, 17] was 100, the “Plant response rating, Ragweed” value [6, 16] was 0 and the “Plant response rating, Ragweed” value [6, 17] was 0. The “Plant response rating, Ducksalad” value [7] was 100, the “Plant response rating, Corn” value (corn (Zea mays); 16 g ai/ha, scale of 0 to 100) was 15 and the “Plant response rating, Corn” value (corn (Zea mays); 31 g ai/ha, scale 0 to 100) was 20. For the same compound, the “Corn plant response rating” value (corn (Zea mays); [18]) was 25, the “Corn plant response rating” value (corn (Zea mays); [19]) was 30 and the “Plant response rating, Crabgrass, Large” value ([8]; 16 g ai/ha, scale of 0 to 100) was 35. The “Plant response rating, Crabgrass, Large” value ([8]; 31 g ai/ha, scale 0 to 100) was 65, the “Crabgrass, Large plant response rating” value [8, 18] was 85 and the “Crabgrass, Large plant response rating” value [8, 19] was 95. The “Plant response rating, Kochia” value (kochia (Kochia scoparia) [9]; 16 g ai/ha, scale of 0 to 100) was 75, the “Plant response rating, Kochia” value (kochia (Kochia scoparia) [9]; 31 g ai/ha, scale 0 to 100) was 85 and the “Kochia plant response rating” value (kochia (Kochia scoparia) [9]; [18]) was 95. For the same compound, the “Kochia plant response rating” value (kochia (Kochia scoparia) [9]; [19]) was 98, the “Plant response rating, Lambsquarters” value ([10]; 16 g ai/ha, scale of 0 to 100) was 65 and the “Plant response rating, Lambsquarters” value ([10]; 31 g ai/ha, scale 0 to 100) was 90. For the same compound, the “Lambsquarters plant response rating” value [10, 18] was 95, the “Lambsquarters plant response rating” value [10, 19] was 100 and the “Plant response rating, Morningglory” value ([11]; 16 g ai/ha, scale of 0 to 100) was 10. For the same compound, the “Plant response rating, Morningglory” value ([11]; 31 g ai/ha, scale 0 to 100) was 55, the “Morningglory plant response rating” value [11, 18] was 65 and the “Morningglory plant response rating” value [11, 19] was 65. The “Plant response rating, Nutsedge, Yellow” value ([12]; 16 g ai/ha, scale of 0 to 100) was 0, the “Plant response rating, Nutsedge, Yellow” value ([12]; 31 g ai/ha, scale 0 to 100) was 0 and the “Nutsedge, Yellow plant response rating” value [12, 18] was 10. The “Nutsedge, Yellow plant response rating” value [12, 19] was 30, the “Plant response rating, Oat, Wild” value ([13]; 16 g ai/ha, scale of 0 to 100) was 10 and the “Plant response rating, Oat, Wild” value ([13]; 31 g ai/ha, scale 0 to 100) was 55. The “Oat, Wild plant response rating” value [13, 18] was 50, the “Oat, Wild plant response rating” value [13, 19] was 70 and the “Plant response rating, Ragweed” value ([14]; 16 g ai/ha, scale of 0 to 100) was 0. The “Plant response rating, Ragweed” value ([14]; 31 g ai/ha, scale 0 to 100) was 30, the “Ragweed plant response rating” value [14, 18] was 35 and the “Ragweed plant response rating” value [14, 19] was 75. For the same compound, the “Plant response rating, Velvetleaf” value ([15]; 16 g ai/ha, scale of 0 to 100) was 10, the “Plant response rating, Velvetleaf” value ([15]; 31 g ai/ha, scale 0 to 100) was 35 and the “Velvetleaf plant response rating” value [15, 19] was 75.
